Experiments:
Utrophin = Utrophin upregulation (mRNA fold change, RT-PCR) in differentiated C2C12 myoblast cells; assay type: cell-based, mouse; conditions: 24 hours; for fold change of utrophin: C2C12 myoblast cells differentiated seven days, 10 μM, FIG. 1
Protocol: C2C12 myoblast cells are seeded in the well plate with a growth medium (10% FBS and DMEM). After they reached 70% confluence, the cells are added to the differentiation medium (2% HS and DMEM) and differentiated for seven days. Stock solutions are prepared for Sitagliptin and other DPP-IV inhibitors viz., Melogliptin, Linagliptin, Vildagliptin, and Teneligliptin in DMSO. The cells are treated with a final concentration of 10 μM stock solution for 24 hours. RNA isolation is carried out using the Qiagen assay kit and quantified using NanodropRT-PCR for Utrophin Upregulation.
Using the same protocol for Example 1, C2C 12 myoblast cells are treated with sitagliptin for 24 hours. Ezutromid is a known utrophin up-regulator and used as a positive control. RNA isolation and RT-PCR are done to quantify the fold change in utrophin mRNA expression. FIG. 2 presents the fold change in mRNA expression of Utrophin on C2C12 mouse skeletal muscle myoblasts at 10 uM sitagliptin compared to 10 uM Ezutromid.

D2.mdx mice [1] = test: Treadmill test in D2.mdx mice; assay type: in vivo, mouse; conditions: 50 mg/kg p.o. q.d., 28 days, vs DMD-Control
Protocol: (§1) All the functional experimental parameters are evaluated in mdx background wild-type mice and in D2.mdx mice (D2.B10-DMD mdx/J mice procured from Jackson laboratories (Strain #013141), Bar Harbor, Maine (ME), USA 04609. The test item, Sitagliptin 50 mg/kg, is orally (p.o.) administered once daily (q.d.) at a dose volume of 10 mL/kg. Sitagliptin suspended in formulation containing 0.1% Tween 20 and 0.5% Carboxymethyl cellulose (CMC) is administered once daily for 28 days via the oral route. The wild-type control and mdx control groups received the vehicle (0.5% Carboxy methyl cellulose (CMC) containing 0.1% Tween 20) alone. Body weight of the study animals is recorded before the study (pre-dose) and twice weekly/daily throughout the study. Animals are also monitored for clinical signs, mortality, and morbidity. […] Muscle function is assessed through grip strength test using a Grip strength meter (Orchid Scientific, Model No.: […], India), hanging test, treadmill running, and rotarod test (Orchid Scientific, India) in response to Vehicle and Sitagliptin (50 mg/kg, p.o.) treatments. […] The efficacy of Sitagliptin is evaluated by comparing the functional test parameters and serum CK levels of the treated group with that of the mdx-control group in comparison to the basal value of Wild-type group. […]

D2.mdx mice [2] = test: Serum Creatinine Kinase level in D2.mdx mice after treadmill test; assay type: in vivo, mouse; conditions: 50 mg/kg p.o. q.d., 28 days, measured within 30 minutes after treadmill test, FIG. 8
Protocol: All the functional experimental parameters are evaluated in mdx background wild-type mice and in D2.mdx mice (D2.B10-DMD mdx/J mice procured from Jackson laboratories (Strain #013141), Bar Harbor, Maine (ME), USA 04609. The test item, Sitagliptin 50 mg/kg, is orally (p.o.) administered once daily (q.d.) at a dose volume of 10 mL/kg. Sitagliptin suspended in formulation containing 0.1% Tween 20 and 0.5% Carboxymethyl cellulose (CMC) is administered once daily for 28 days via the oral route. The wild-type control and mdx control groups received the vehicle (0.5% Carboxy methyl cellulose (CMC) containing 0.1% Tween 20) alone. […] All three group mice (Wild-type, DMD-Control & DMD-Sitagliptin) underwent functional tests at week 0 (Basal-Day 0), week 2 (Day 14) and at the end of the study (week 4 or Day 28). […] Blood samples are collected for Creatine kinase (CK) analysis 30 min after Treadmill functional test on Day 0, 14 & Day 28. The efficacy of Sitagliptin is evaluated by comparing the functional test parameters and serum CK levels of the treated group with that of the mdx-control group in comparison to the basal value of Wild-type group. […] Treadmill, grip strength, hanging, rotarod, and creatine kinase tests are recorded on day 0, day 14 and day 28. […] Serum Creatinine Kinase level is measured within 30 minutes after the mice are subjected to Treadmill tests.

D2.mdx mice [3] = test: Hanging test in D2.mdx mice; assay type: in vivo, mouse; conditions: 50 mg/kg p.o. q.d., irrespective of treadmill stress, compared with wild type mice, FIGS. 6A and 6B
Protocol: as §1

D2.mdx mice [4] = test: Grip strength test in D2.mdx mice; assay type: in vivo, mouse; conditions: 50 mg/kg p.o. q.d., before treadmill stress, compared with wild type mice, FIG. 5A
Protocol: as §1

D2.mdx mice [5] = test: 28th day summary of functional tests in D2.mdx mouse models; assay type: in vivo; conditions: 50 mg/kg p.o. q.d., day 28, vs DMD disease control mice, FIG. 9A-9F
Protocol: as §1

D2.mdx mice [6] = test: Rotarod test in D2.mdx mice; assay type: in vivo, mouse; conditions: 50 mg/kg p.o. q.d., 28 days, FIG. 7
Protocol: as §1

N#C[C@@H]1C[C@H](F)CN1C(=O)CN[C@@H]1CC[C@H](Cn2cncn2)C1 [Melogliptin, (2S,4S)-4-fluoro-1-[2-[[(1R,3S)-3-(1,2,4-triazol-1-ylmethyl)cyclopentyl]amino]acetyl]pyrrolidine-2 carbonitrile]
fold change of utrophin (Utrophin): capable of upregulating utrophin levels

Cc1cc(N2CCN([C@@H]3CN[C@H](C(=O)N4CCSC4)C3)CC2)n(-c2ccccc2)n1 [Teneligliptin, {(2S,4S)-4-[4-(3-Methyl-1-phenyl-1H-pyrazol-5-yl)-1-piperazinyl]-2-pyrrolidinyl}(1,3-thiazolidin-3-yl)methanone]
fold change of utrophin (Utrophin): capable of upregulating utrophin levels

N#C[C@@H]1CCCN1C(=O)CNC12CC3CC(CC(O)(C3)C1)C2 [Vildagliptin, (S)-1-[2-(3-Hydroxyadamantan-1-ylamino)acetyl]pyrrolidine-2-carbonitrile]
fold change of utrophin (Utrophin): capable of upregulating utrophin levels

N[C@@H](CC(=O)N1CCn2c(nnc2C(F)(F)F)C1)Cc1cc(F)c(F)cc1F [Sitagliptin, (R)-4-oxo-4-[3-(trifluoromethyl)-5,6-dihydro[1,2,4]triazolo[4,3-a]pyrazin-7(8H)-yl]-1-(2,4,5-trifluorophenyl)butan-2-amine]
fold change in mRNA expression of Utrophin compared to Ezutromid (Utrophin; C2C12 mouse skeletal muscle myoblasts, 10 uM sitagliptin vs 10 uM Ezutromid (positive control), FIG. 2): superior upregulation of utrophin compared Ezutromid
fold change of utrophin (Utrophin): capable of upregulating utrophin levels
distance travelled in 30 mins (treadmill) (D2.mdx mice [1]; FIG. 4A): significant and sustained improvement
time to exhaust (treadmill) (D2.mdx mice [1]; FIG. 4B): significant and sustained improvement
Serum Creatinine Kinase levels (D2.mdx mice [2]): significant reductions
hanging latency pre- and post-treadmill (D2.mdx mice [3]): perform comparably with wild type mice
normalized grip strength pre-treadmill (D2.mdx mice [4]): could grip as well as the wild type mice
all functional parameters (distance travelled, time to exhaust, grip strength, hanging test), 28th day summary (D2.mdx mice [5]): robust improvement in all the functional parameters
latency to fall (rotarod) (D2.mdx mice [6]): sustained improvements in overall muscle coordination

CC#CCn1c(N2CCC[C@@H](N)C2)nc2c1c(=O)n(Cc1nc(C)c3ccccc3n1)c(=O)n2C [Linagliptin, 8-[(3R)-3-Aminopiperidin-1-yl]-7-(but-2-yn-1-yl)-3-methyl-1-[(4-methylquinazolin-2-yl)methyl]-3,7-dihydro-1H-purine-2,6-dione]
fold change of utrophin (Utrophin): capable of upregulating utrophin levels

— patent US20260284043A1, “COMPOUNDS FOR UPREGULATING UTROPHIN LEVELS IN MUSCLE CELLS AND METHOD OF APPLICATION THEREOF” (Peptris Technologies Private Limited, priority 2023, published 2026)
